What all share (assay type): cell-based
For data set [1], the system named is neonatal fibroblast cells. The experiment in a line: Cell proliferation assay (coulter counter). As to conditions: HB 500 nM, 5 μM, 25 μM, alone or with benzoquinone 25, 50, 100 μM; 24 hours.
Experimental: A cell proliferation assay was also performed on neonatal fibroblast cells. […] The cells were trypsinized and quantified using a coulter counter.
The subject of a further data set is Bcl-2. The experiment in a line: Western blot of building block components, Bcl-2 expression in Skmel-28 melanoma cells. Conditions: 15 μM, 24 hours. On the procedure:
Skmel-28 melanoma cells were cultured in DMEM/F12 supplemented with 5% Fetal Bovine Serum (FBS) and 1× final concentration of Antibiotics. The cells were grown to 85% confluency and treated with building block components for 3, 6, 12 and 24 hours. The cells were then pelleted and a Western blot analysis was performed.
The test building block components included L-Phenylylalanine, DL-Phenylyalanine, D-Phenylylalanine, L-Tyrosine, DL-Tyrosine, D-Tyrosine, 4-Hydroxy-phenylpyruvate, phenylacetate, 3-methoxy-4-hydroxymandelate (vanillylmandelate or VMA), vanillic acid, 4-hydroxy-benzoate, pyridoxine, panthenol, mevalonic acid, Acetylglycine, Acetyl-CoA, Farnesyl, and 2,3-Dimethoxy-5-methyl-p-benzoquinone.
In the Western Blot Analysis, the cells were pelleted in cold PBS, lysed, and the protein levels were quantified using a BCA protein assay. The whole cell lysate was loaded in a 4% loading 12% running Tris-HCl gel. The proteins were then transferred to a nitrocellulose paper then blocked with a 5% milk Tris-buffered solution for 1 hour. The proteins were then exposed to primary antibodies (Bcl-2 and Caspase-3) overnight. The nitrocellulose paper was then exposed to Pico Chemilluminescent for 5 min and the protein expression was recorded. After exposure, actin was quantified using the same method. Using ImageJ the levels of protein expression were quantified. A t-Test was used to analyze for statistical significance.

Another data set relates to Melanoma cells. The experiment in a line: Cell proliferation assay (live cell count) of building block combinations. How it is done: Cell Proliferation Assay of the Combination of 4-Hydroxy-Benzoate with Benzoquinone: This set of experiments used a cell proliferation assay to assess the effect of combining different building block molecules on cell proliferation.
The first study examined the effect of combining 4-Hydroxy-Benzoate with Benzoquinone. Cells were incubated for 48 hours, after which a cell count was performed for the live cells. Each test group was compared to the control, and each combination groups were compared to Benzoquinone control. The compounds were statistically analyzed for the addition of Benzoquinone.
Additional studies were performed testing additional molar ratios. For the first test 4-Hydroxybenzoic were tested at concentrations of 500 nM, 1 μM, and 50 μM. These concentrations were tested in combination with 2,3-Dimethoxy-5-methyl-p-benzoquinone (Benzo). The concentration of Benzo tested were 25 μM, 50 μM, and 100 μM. Melanoma cells were grown to 80% confluency and seeded in 6 well plates at a concentration of 40K cells per well. The cells were treated with CoQ10, 4-Hydroxybenzoate, Benzo, and a combination of 4-Hydroxybenzoate/Benzo.
A T-test was performed with p<0.05 as statistically significant.

Each structure is given as a SMILES string.

Take `O=C(O)c1ccc(O)cc1` [4-Hydroxybenzoate]: the “fibroblast cell number (toxicity in normal cells)” value in data set [1] is on record as “did not show a significant reduction”. In addition, the Bcl-2 expression result with Bcl-2 is “significant reduction”. Further, the “cell number vs control” value with Melanoma cells (48 hours incubation) was “significant decrease”. Also, the cell proliferation entry in the data set on Melanoma cells (treatment medium containing HB (500 nM, 1 μM, 50 μM)) is reported as “significant decrease”.
